Two molecules from patent US12252524B2, “GIP/GLP1 co-agonist compounds” (Eli Lilly and Company, priority 2018, dated 2025) can be followed below.

Assay [1] concerns the target human GLP-1 receptor (GLP-1R) (Homo sapiens, UniProt P43220). Nature of the assay: cAMP pharmacological functional assay in presence of casein, hGLP-1R. Format: cell-based. Conditions: HEK293 cells expressing hGLP-1R, 0.1% Casein, geometric mean; read-out: hGLP1R cAMP Rel EC50 nM (SEM, n).
Assay [2] deals with T1, gastric inhibitory peptide receptor (GIPR) (Homo sapiens, UniProt P48546).
T1 sequence (P48546 22-466): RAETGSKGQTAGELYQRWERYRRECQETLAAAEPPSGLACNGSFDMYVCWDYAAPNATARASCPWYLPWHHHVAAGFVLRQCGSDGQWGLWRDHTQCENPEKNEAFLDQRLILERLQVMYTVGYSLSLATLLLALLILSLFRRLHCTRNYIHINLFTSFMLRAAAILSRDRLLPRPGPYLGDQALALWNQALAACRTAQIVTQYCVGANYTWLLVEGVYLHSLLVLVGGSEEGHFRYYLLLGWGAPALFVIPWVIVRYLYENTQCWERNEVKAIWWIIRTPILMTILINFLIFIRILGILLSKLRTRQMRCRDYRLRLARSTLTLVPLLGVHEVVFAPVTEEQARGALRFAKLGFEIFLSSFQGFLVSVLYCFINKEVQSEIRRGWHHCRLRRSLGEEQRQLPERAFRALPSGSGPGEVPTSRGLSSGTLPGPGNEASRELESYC
Put plainly: cAMP pharmacological functional assay in presence of casein, hGIPR. Format: cell-based. The conditions noted are these: HEK293 cells expressing hGIPR, 0.1% Casein, geometric mean; read-out: hGIPR cAMP Rel EC50 nM (SEM, n).

A further assay concerns the target T2, human Gcg receptor (Homo sapiens, UniProt P47871).
T2 construct: expressed in transfected cells; crude membranes
Put plainly: [125I]-Glucagon binding (SPA), human Gcg receptor. Conditions: read-out: hGLcgR Ki, nM (SEM, n). In short, it runs like this:
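Cell pellets were lysed in hypotonic Tris buffer, pH 7.5, homogenized, and spun at low then high speed to give crude membranes. Ki was derived from the fitted IC50.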

In another assay the target is T3, human GIP receptor (Homo sapiens, UniProt P48546).
T3 construct: expressed in transfected cells; crude membranes
T3 sequence (P48546 22-466): T1 sequence (P48546 22-466)
Put plainly: [125I]-GIP binding (SPA), human GIP receptor. Conditions: read-out: hGIPR Ki, nM (SEM, n).

A further assay addresses human GLP-1R (Homo sapiens, UniProt P43220). Put plainly: [125I]-GLP-1 binding (SPA), human GLP-1 receptor. Also noted: expressed in transfected cells; crude membranes. Conditions: read-out: hGLP1R Ki, (nM) (SEM, n). The gist of the method:
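Frozen cell pellets are lysed on ice in hypotonic Tris buffer, pH 7.5, homogenized, and centrifuged to a membrane pellet resuspended at about 1 to 3 mg/mL. Binding is then measured in HEPES-based buffer at pH 7.4, and curves are fitted to give IC50 and Ki.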

Each structure is given as a SMILES string. Numbered stars: 1 amine (or outer) side, 2 acyl side, 3 side chain; on linkers, the order of the positions; unused ones are H or OH. Square brackets hold non-standard residues; d marks the D form. Side chains are listed from the residue outwards. Peptide text beside a SMILES is read from it. * marks the point of attachment. C20 diacid = O=C(O)CCCCCCCCCCCCCCCCCCC(=O)*; αMePhe(2-F) = C[C@](N)(Cc1ccccc1F)C(=O)O; γGlu = O=C(O)[C@H](CCC(=O)[*:2])N[*:1]; 4Pal = N[C@@H](Cc1ccncc1)C(=O)O; αMeL = CC(C)C[C@](C)(N)C(=O)O; AEEA = NCCOCCOCC(=O)O; Aib = CC(C)(N)C(=O)O

human GLP-1R, sequence (P43220 24-463): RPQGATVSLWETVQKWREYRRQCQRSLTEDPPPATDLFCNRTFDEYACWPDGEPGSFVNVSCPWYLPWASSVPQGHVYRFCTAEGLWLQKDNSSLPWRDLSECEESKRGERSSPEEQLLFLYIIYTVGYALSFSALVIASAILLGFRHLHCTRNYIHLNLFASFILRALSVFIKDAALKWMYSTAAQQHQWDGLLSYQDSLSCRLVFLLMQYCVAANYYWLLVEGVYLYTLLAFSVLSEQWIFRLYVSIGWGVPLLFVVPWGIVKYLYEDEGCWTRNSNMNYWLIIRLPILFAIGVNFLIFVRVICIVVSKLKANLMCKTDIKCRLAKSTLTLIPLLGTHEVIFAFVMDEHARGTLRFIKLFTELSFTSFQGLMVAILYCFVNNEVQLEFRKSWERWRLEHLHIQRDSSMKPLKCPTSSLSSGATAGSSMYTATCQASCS
human GLP-1 receptor (GLP-1R), sequence (P43220 24-463): as above
T2 sequence (P47871 26-477): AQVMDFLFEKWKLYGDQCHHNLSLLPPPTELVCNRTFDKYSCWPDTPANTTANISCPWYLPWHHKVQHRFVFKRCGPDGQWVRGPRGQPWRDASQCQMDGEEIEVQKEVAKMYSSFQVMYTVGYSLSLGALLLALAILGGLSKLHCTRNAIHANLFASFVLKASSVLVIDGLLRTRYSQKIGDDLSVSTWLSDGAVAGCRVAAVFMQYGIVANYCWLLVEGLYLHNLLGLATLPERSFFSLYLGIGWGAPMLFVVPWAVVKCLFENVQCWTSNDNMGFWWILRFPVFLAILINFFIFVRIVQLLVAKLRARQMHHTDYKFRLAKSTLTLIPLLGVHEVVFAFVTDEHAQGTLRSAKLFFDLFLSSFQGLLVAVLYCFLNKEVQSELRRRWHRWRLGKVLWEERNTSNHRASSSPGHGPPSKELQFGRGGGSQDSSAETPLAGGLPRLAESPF

Take `CC[C@H](C)[C@H](NC(=O)[C@H](CC(C)C)NC(=O)[C@H](Cc1ccc(O)cc1)NC(=O)[C@@H](CCC(=O)O)NC(=O)[C@@H](NC(=O)[C@H](Cc1ccccc1)NC(=O)[C@H](CCC(=O)O)NC(=O)C(C)(C)NC(=O)[C@H](CCC(N)=O)NC(=O)[C@H](C)NC(=O)[C@H](CCCCNC(=O)COCCOCCNC(=O)COCCOCCNC(=O)CC[C@H](NC(=O)CCCCCCCCCCCCCCCCCCC(=O)O)C(=O)O)NC(=O)[C@H](CCCCN)NC(=O)[C@H](CC(=O)O)NC(=O)[C@H](CC(C)C)NC(=O)[C@](C)(CC(C)C)NC(=O)[C@@H](NC(=O)[C@H](CO)NC(=O)[C@H](Cc1ccncc1)NC(=O)[C@H](CC(=O)O)NC(=O)[C@H](CO)NC(=O)[C@@H](NC(=O)[C@](C)(Cc1ccccc1F)NC(=O)[C@@H](NC(=O)CNC(=O)[C@H](CCC(=O)O)NC(=O)C(C)(C)NC(=O)[C@@H](N)Cc1ccc(O)cc1)[C@@H](C)O)[C@@H](C)O)[C@@H](C)CC)[C@@H](C)CC)C(=O)N[C@@H](CCC(=O)O)C(=O)NCC(=O)NCC(=O)N1CCC[C@H]1C(=O)N[C@@H](CO)C(=O)N[C@@H](CO)C(=O)NCC(=O)N[C@@H](C)C(=O)N1CCC[C@H]1C(=O)N1CCC[C@H]1C(=O)N1CCC[C@H]1C(=O)N[C@@H](CO)C(N)=O` [Example 203] (H-Y[Aib]EGT[αMePhe(2-F)]TSD[4Pal]SI[αMeL]LDKK([AEEA-AEEA-γGlu-C20 diacid])AQ[Aib]EFI[dE]YLIEGGPSSGAPPPS-NH2; N-terminus assumed): the EC50 was found to be 0.0679 nM in assay [1] and 0.0387 nM in assay [2]. In addition, the results for the Ki at human Gcg receptor, at human GIP receptor and on human GLP-1R were 845 nM, 0.0337 nM and 3.9 nM, respectively.
In the case of `CC[C@H](C)[C@H](NC(=O)[C@H](CC(C)C)NC(=O)[C@H](Cc1ccc(O)cc1)NC(=O)[C@@H](CCC(=O)O)NC(=O)[C@@H](NC(=O)[C@H](Cc1ccccc1)NC(=O)[C@H](CCC(=O)O)NC(=O)C(C)(C)NC(=O)[C@H](CCC(N)=O)NC(=O)[C@H](C)NC(=O)[C@H](CCCCNC(=O)COCCOCCNC(=O)COCCOCCNC(=O)CCCCCCCCCCCCCCCCCCC(=O)O)NC(=O)[C@H](CCC(=O)O)NC(=O)[C@H](CC(=O)O)NC(=O)[C@H](CC(C)C)NC(=O)[C@](C)(CC(C)C)NC(=O)[C@@H](NC(=O)[C@H](CO)NC(=O)[C@H](Cc1ccncc1)NC(=O)[C@H](CC(=O)O)NC(=O)[C@H](CO)NC(=O)[C@@H](NC(=O)[C@](C)(Cc1ccccc1F)NC(=O)[C@@H](NC(=O)CNC(=O)[C@H](CCC(=O)O)NC(=O)C(C)(C)NC(=O)[C@@H](N)Cc1ccc(O)cc1)[C@@H](C)O)[C@@H](C)O)[C@@H](C)CC)[C@@H](C)CC)C(=O)N[C@@H](CCC(=O)O)C(=O)NCC(=O)NCC(=O)N1CCC[C@H]1C(=O)N[C@@H](CO)C(=O)N[C@@H](CO)C(=O)NCC(=O)N[C@@H](C)C(=O)N1CCC[C@H]1C(=O)N1CCC[C@H]1C(=O)N1CCC[C@H]1C(=O)N[C@@H](CO)C(N)=O` [Example 206] (H-Y[Aib]EGT[αMePhe(2-F)]TSD[4Pal]SI[αMeL]LDEK([AEEA-AEEA-C20 diacid])AQ[Aib]EFI[dE]YLIEGGPSSGAPPPS-NH2; N-terminus assumed), the figures for the 50% effective concentration (EC50) in assay [1] and in assay [2] were 0.027 nM and 0.0409 nM, respectively. Moreover, the figures for the Ki at human Gcg receptor, at human GIP receptor and at human GLP-1R were 176 nM, 0.0814 nM and 5.27 nM, respectively.
